According to PubChem BioAssay (NCI):
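96-well plates; 48 h exposure; 5 concentrations. Endpoints by linear interpolation between flanking doses. Not reached: highest tested concentration assigned. At the GI50, growth is halved. TGI is the concentration that stops growth completely.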

Experiments:
Assay in all cases: growth of human tumour cells (NCI), 48 h
[1] = test system: 786-0 renal
[2] = test system: A498 renal
[3] = test system: A549 NSCLC
[4] = test system: ACHN renal
[5] = test system: BT-549 breast
[6] = test system: CAKI-1 renal
[7] = test system: CCRF-CEM leukemia
[8] = test system: COLO 205 colon
[9] = test system: DU-145 prostate
[10] = test system: EKVX NSCLC
[11] = test system: HCC-2998 colon
[12] = test system: HCT-116 colon
[13] = test system: HCT-15 colon
[14] = test system: HL-60(TB) leukemia
[15] = test system: HOP-62 NSCLC
[16] = test system: HOP-92 NSCLC
[17] = test system: HS 578T breast
[18] = test system: HT29 colon
[19] = test system: IGROV1 ovarian
[20] = test system: K-562 leukemia
[21] = test system: KM12 colon
[22] = test system: LOX IMVI melanoma
[23] = test system: M14 melanoma
[24] = test system: MALME-3M melanoma
[25] = test system: MCF7 breast
[26] = test system: MDA-MB-435
[27] = test system: MDA-MB-468 breast
[28] = test system: MOLT-4 leukemia
[29] = test system: NCI-H226 lung
[30] = test system: NCI-H23 lung
[31] = test system: NCI-H460 lung
[32] = test system: NCI-H522 lung
[33] = test system: NCI/ADR-RES ovarian
[34] = test system: OVCAR-3 ovarian
[35] = test system: OVCAR-4 ovarian
[36] = test system: OVCAR-5 ovarian
[37] = test system: OVCAR-8 ovarian
[38] = test system: PC-3 prostate
[39] = test system: RPMI-8226 leukemia
[40] = test system: RXF 393 renal
[41] = test system: SF-268 CNS
[42] = test system: SF-295 CNS
[43] = test system: SF-539 CNS
[44] = test system: SK-MEL-2 melanoma
[45] = test system: SK-MEL-5 melanoma
[46] = test system: SK-OV-3 ovarian
[47] = test system: SN12C renal
[48] = test system: SNB-19 CNS
[49] = test system: SNB-75 CNS
[50] = test system: SW-620 colon
[51] = test system: T-47D breast
[52] = test system: TK-10 renal
[53] = test system: U251 CNS
[54] = test system: UACC-257 melanoma
[55] = test system: UACC-62 melanoma
[56] = test system: MDA-MB-231 breast
[57] = test system: SK-MEL-28 melanoma
[58] = test system: UO-31 renal

Clc1ccc(/C=N/Nc2ncnc3sc4c(c23)CCN(Cc2ccccc2)C4)cc1
GI50 [1]: 3.85 µM
TGI [1]: 14.8 µM
GI50 [2]: 25.8 µM
TGI [2]: 59.2 µM
GI50 [3]: 12.1 µM
TGI [3]: > 100 µM
GI50 [4]: 15.8 µM
TGI [4]: > 100 µM
GI50 [5]: 23.4 µM
TGI [5]: > 100 µM
GI50 [6]: > 100 µM
TGI [6]: > 100 µM
GI50 [7]: 3.51 µM
TGI [7]: 25.5 µM
GI50 [8]: 3.52 µM
TGI [8]: 12.9 µM
GI50 [9]: 5.67 µM
TGI [9]: > 100 µM
GI50 [10]: 65.6 µM
TGI [10]: > 100 µM
GI50 [11]: 10.7 µM
TGI [11]: > 100 µM
GI50 [12]: 3.04 µM
TGI [12]: 10.4 µM
GI50 [13]: 4.04 µM
TGI [13]: 25.2 µM
GI50 [14]: 5.59 µM
TGI [14]: 43 µM
GI50 [15]: 4.8 µM
TGI [15]: 25.2 µM
GI50 [16]: 2.4 µM
TGI [16]: 6.7 µM
GI50 [17]: 6.33 µM
TGI [17]: > 100 µM
GI50 [18]: 3.37 µM
TGI [18]: 13.7 µM
GI50 [19]: 20.1 µM
TGI [19]: > 100 µM
GI50 [20]: 4.16 µM
TGI [20]: 54.9 µM
GI50 [21]: 11.9 µM
TGI [21]: > 100 µM
GI50 [22]: 2.9 µM
TGI [22]: 9.74 µM
GI50 [23]: 2.65 µM
TGI [23]: 7.66 µM
GI50 [24]: 4.96 µM
TGI [24]: > 100 µM
GI50 [25]: 2.98 µM
TGI [25]: 15 µM
GI50 [26]: 7.26 µM
TGI [26]: > 100 µM
GI50 [27]: 3.72 µM
TGI [27]: 15.8 µM
GI50 [28]: 4.53 µM
TGI [28]: 34.5 µM
GI50 [29]: 2.31 µM
TGI [29]: 7.41 µM
GI50 [30]: 12 µM
TGI [30]: > 100 µM
GI50 [31]: 2.26 µM
TGI [31]: 4.88 µM
GI50 [32]: 23.9 µM
TGI [32]: > 100 µM
GI50 [33]: 2.34 µM
TGI [33]: 5.84 µM
GI50 [34]: 2.49 µM
TGI [34]: 5.33 µM
GI50 [35]: 2.76 µM
TGI [35]: 7.52 µM
GI50 [36]: 20.9 µM
TGI [36]: > 100 µM
GI50 [37]: 1.95 µM
TGI [37]: 3.99 µM
GI50 [38]: 3.63 µM
TGI [38]: 32.5 µM
GI50 [39]: 5.39 µM
TGI [39]: 84.9 µM
GI50 [40]: 10.2 µM
TGI [40]: 26.6 µM
GI50 [41]: 8.38 µM
TGI [41]: > 100 µM
GI50 [42]: 4.19 µM
TGI [42]: 21.6 µM
GI50 [43]: 4.1 µM
TGI [43]: 18.2 µM
GI50 [44]: 16 µM
TGI [44]: 42.7 µM
GI50 [45]: 18.6 µM
TGI [45]: > 100 µM
GI50 [46]: 20.8 µM
TGI [46]: 78.4 µM
GI50 [47]: 9.09 µM
TGI [47]: > 100 µM
GI50 [48]: 6.06 µM
TGI [48]: > 100 µM
GI50 [49]: 3.21 µM
TGI [49]: 41.2 µM
GI50 [50]: 3.85 µM
TGI [50]: 31.9 µM
GI50 [51]: 22.5 µM
TGI [51]: > 100 µM
GI50 [52]: 20.8 µM
TGI [52]: 41.9 µM
GI50 [53]: 4 µM
TGI [53]: 16.6 µM
GI50 [54]: 9.6 µM
TGI [54]: 76.9 µM
GI50 [55]: 30.5 µM
TGI [55]: > 100 µM

Cc1occc1C(=O)NN1C(=O)/C(=C/C=C/c2ccc([N+](=O)[O-])o2)SC1=S
GI50 [1]: 2.01 µM
TGI [1]: 4.19 µM
GI50 [2]: 19.4 µM
TGI [2]: 33.6 µM
GI50 [3]: 4.82 µM
TGI [3]: 21.1 µM
GI50 [4]: 1.73 µM
TGI [4]: 3.23 µM
GI50 [5]: 1.77 µM
TGI [5]: 3.29 µM
GI50 [6]: 1.82 µM
TGI [6]: 4.01 µM
GI50 [7]: 1.41 µM
TGI [7]: 8.47 µM
GI50 [8]: 1.62 µM
TGI [8]: 3.23 µM
GI50 [9]: 3.11 µM
TGI [9]: 10.1 µM
GI50 [10]: 1.83 µM
TGI [10]: 4 µM
GI50 [11]: 1.89 µM
TGI [11]: 3.69 µM
GI50 [12]: 1.06 µM
TGI [12]: 2.54 µM
GI50 [13]: 0.645 µM
TGI [13]: 2.24 µM
GI50 [14]: 2.64 µM
TGI [14]: 11.6 µM
GI50 [15]: 3.37 µM
TGI [15]: 11.7 µM
GI50 [16]: 2.56 µM
TGI [16]: 5.59 µM
GI50 [17]: 2.44 µM
TGI [17]: 7.46 µM
GI50 [19]: 1.85 µM
TGI [19]: 3.56 µM
GI50 [20]: 0.586 µM
TGI [20]: 7.28 µM
GI50 [21]: 2.22 µM
TGI [21]: 6.21 µM
GI50 [22]: 1.26 µM
TGI [22]: 2.55 µM
GI50 [23]: 1.51 µM
TGI [23]: 2.93 µM
GI50 [24]: 1.5 µM
TGI [24]: 3.23 µM
GI50 [25]: 1.5 µM
TGI [25]: 5 µM
GI50 [56]: 1.51 µM
TGI [56]: 2.97 µM
GI50 [26]: 1.93 µM
TGI [26]: 4.26 µM
GI50 [27]: 1.62 µM
TGI [27]: 3.27 µM
GI50 [28]: 2.13 µM
TGI [28]: 8.32 µM
GI50 [29]: 2.02 µM
TGI [29]: 5.09 µM
GI50 [30]: 1.78 µM
TGI [30]: 3.6 µM
GI50 [31]: 1.79 µM
TGI [31]: 3.66 µM
GI50 [32]: 1.65 µM
TGI [32]: 3.21 µM
GI50 [33]: 2.55 µM
TGI [33]: 7.46 µM
GI50 [34]: 1.59 µM
TGI [34]: 3.07 µM
GI50 [35]: 2.76 µM
TGI [35]: 10.1 µM
GI50 [36]: 1.86 µM
TGI [36]: 3.68 µM
GI50 [37]: 2.5 µM
TGI [37]: 10.9 µM
GI50 [38]: 2.79 µM
TGI [38]: 10.2 µM
GI50 [39]: 1.67 µM
TGI [39]: 7.51 µM
GI50 [40]: 1.71 µM
TGI [40]: 3.2 µM
GI50 [41]: 2.49 µM
TGI [41]: 6.95 µM
GI50 [42]: 6.19 µM
TGI [42]: 18.8 µM
GI50 [43]: 1.72 µM
TGI [43]: 3.3 µM
GI50 [44]: 1.73 µM
TGI [44]: 3.56 µM
GI50 [57]: 1.85 µM
TGI [57]: 3.63 µM
GI50 [45]: 1.64 µM
TGI [45]: 3.13 µM
GI50 [46]: 5.82 µM
TGI [46]: 18.7 µM
GI50 [47]: 1.65 µM
TGI [47]: 3.96 µM
GI50 [48]: 5.47 µM
TGI [48]: 18 µM
GI50 [49]: 1.66 µM
TGI [49]: 7.48 µM
GI50 [50]: 1.11 µM
TGI [50]: 2.65 µM
GI50 [51]: 2.17 µM
TGI [51]: 5.57 µM
GI50 [52]: 3.47 µM
TGI [52]: 9.99 µM
GI50 [53]: 1.89 µM
TGI [53]: 4.62 µM
GI50 [54]: 2.05 µM
TGI [54]: 5.1 µM
GI50 [55]: 1.36 µM
TGI [55]: 2.77 µM
GI50 [58]: 1.51 µM
TGI [58]: 2.96 µM
